{"source": "ChEMBL document CHEMBL4376820", "about": "“Homodimeric Tobramycin Adjuvant Repurposes Novobiocin as an Effective Antibacterial Agent against Gram-Negative Bacteria” (J Med Chem, 2019)", "key": {"Pseudomonas aeruginosa [1]": {"system": "Pseudomonas aeruginosa", "test": "Synergistic antibacterial activity against wild type Pseudomonas aeruginosa PAO1 assessed as potentiation of meropenem-induced antibacterial effect incubated for 18 hrs by checkerboard assay", "format": "functional, organism-based"}, "HEK293": {"system": "HEK293", "test": "Cytotoxicity against human HEK293 cells at 50 uM incubated for 48 hrs by PrestoBlue dye based fluorescence assay", "format": "cell-based", "settings": "hek293, 48 h"}, "[2]": {"test": "Toxicity in Galleria mellonella larvae assessed as survivability at 200 mg/kg measured every 6 hrs for 72 hrs", "format": "organism-based", "settings": "in vivo"}, "Pseudomonas aeruginosa [3]": {"system": "Pseudomonas aeruginosa", "test": "Synergistic antibacterial activity against wild type Pseudomonas aeruginosa PAO1 assessed as potentiation of ceftazidime-induced antibacterial effect incubated for 18 hrs by checkerboard assay", "format": "functional, organism-based"}, "Pseudomonas aeruginosa [4]": {"system": "Pseudomonas aeruginosa", "test": "Synergistic antibacterial activity against wild type Pseudomonas aeruginosa PAO1 assessed as potentiation of chloramphenicol-induced antibacterial effect incubated for 18 hrs by checkerboard assay", "format": "functional, organism-based"}, "Pseudomonas aeruginosa [5]": {"system": "Pseudomonas aeruginosa", "test": "Synergistic antibacterial activity against wild type Pseudomonas aeruginosa PAO1 assessed as potentiation of tobramycin-induced antibacterial effect at <= 7.1 uM incubated for 18 hrs by checkerboard assay", "format": "functional, organism-based"}, "Pseudomonas aeruginosa [6]": {"system": "Pseudomonas aeruginosa", "test": "Synergistic antibacterial activity against wild type Pseudomonas aeruginosa PAO1 assessed as potentiation of minocycline-induced antibacterial effect incubated for 18 hrs by checkerboard assay relative to minocycline alone", "format": "functional"}, "Pseudomonas aeruginosa [7]": {"system": "Pseudomonas aeruginosa", "test": "Synergistic antibacterial activity against wild type Pseudomonas aeruginosa PAO1 assessed as potentiation of moxifloxacin-induced antibacterial effect incubated for 18 hrs by checkerboard assay relative to moxifloxacin alone", "format": "functional"}, "Pseudomonas aeruginosa [8]": {"system": "Pseudomonas aeruginosa", "test": "Synergistic antibacterial activity against wild type Pseudomonas aeruginosa PAO1 assessed as potentiation of ceftazidime-induced antibacterial effect incubated for 18 hrs by checkerboard assay relative to ceftazidime alone", "format": "functional"}, "Pseudomonas aeruginosa [9]": {"system": "Pseudomonas aeruginosa", "test": "Potentiation of novobiocin-induced antibacterial activity against wild type Pseudomonas aeruginosa PAO1 assessed as novobiocin MIC at <= 7.1 uM incubated for 18 hrs by CLSI protocol based assay (reference value: 512 ug/ml)", "format": "functional", "settings": "PAO1, 18 h"}, "Pseudomonas aeruginosa [10]": {"system": "Pseudomonas aeruginosa", "test": "Potentiation of novobiocin-induced antibacterial activity against carbapenem-resistant Pseudomonas aeruginosa 259-96918 clinical isolate assessed as novobiocin MIC at <= 7.1 uM incubated for 18 hrs by CLSI protocol based assay (reference value: 512 ug/ml)", "format": "functional", "settings": "259-96918, 18 h"}, "Pseudomonas aeruginosa [11]": {"system": "Pseudomonas aeruginosa", "test": "Potentiation of novobiocin-induced antibacterial activity against carbapenem-resistant Pseudomonas aeruginosa 100036 clinical isolate assessed as novobiocin MIC at <= 7.1 uM incubated for 18 hrs by CLSI protocol based assay (reference value: 1024 ug/ml)", "format": "functional", "settings": "Pseudomonas aeruginosa, 100036, 18 h"}, "Pseudomonas aeruginosa [12]": {"system": "Pseudomonas aeruginosa", "test": "Potentiation of novobiocin-induced antibacterial activity against colistin and carbapenem-resistant Pseudomonas aeruginosa 101243 clinical isolate assessed as novobiocin MIC at <= 7.1 uM incubated for 18 hrs by CLSI protocol based assay (reference value: 128 ug/ml)", "format": "functional", "settings": "Pseudomonas aeruginosa, 101243, 18 h"}, "Pseudomonas aeruginosa [13]": {"system": "Pseudomonas aeruginosa", "test": "Potentiation of novobiocin-induced antibacterial activity against carbapenem-resistant Pseudomonas aeruginosa 101885 clinical isolate assessed as novobiocin MIC at <= 7.1 uM incubated for 18 hrs by CLSI protocol based assay (reference value: 1024 ug/ml)", "format": "functional", "settings": "Pseudomonas aeruginosa, 101885, 18 h"}, "Acinetobacter baumannii [14]": {"system": "Acinetobacter baumannii", "test": "Potentiation of novobiocin-induced antibacterial activity against wild type Acinetobacter baumannii ATCC 17978 assessed as novobiocin MIC at <= 7.1 uM incubated for 18 hrs by CLSI protocol based assay (reference value: 16 ug/ml)", "format": "functional", "settings": "ATCC 17978, 18 h"}, "Acinetobacter baumannii [15]": {"system": "Acinetobacter baumannii", "test": "Potentiation of novobiocin-induced antibacterial activity against Acinetobacter baumannii 031 clinical isolate assessed as novobiocin MIC at <= 7.1 uM incubated for 18 hrs by CLSI protocol based assay (reference value: 8 ug/ml)", "format": "functional", "settings": "Acinetobacter baumannii, 031, 18 h"}, "Acinetobacter baumannii [16]": {"system": "Acinetobacter baumannii", "test": "Potentiation of novobiocin-induced antibacterial activity against Acinetobacter baumannii LAC-4 clinical isolate assessed as novobiocin MIC at <= 7.1 uM incubated for 18 hrs by CLSI protocol based assay (reference value: 8 ug/ml)", "format": "functional", "settings": "LAC-4, 18 h"}, "Klebsiella pneumoniae [17]": {"system": "Klebsiella pneumoniae", "test": "Potentiation of novobiocin-induced antibacterial activity against colistin-resistant Klebsiella pneumoniae 113250 clinical isolate assessed as novobiocin MIC at <= 7.1 uM incubated for 18 hrs by CLSI protocol based assay (reference value: 512 ug/ml)", "format": "functional", "settings": "Klebsiella pneumoniae, 113250, 18 h"}, "Enterobacter cloacae [18]": {"system": "Enterobacter cloacae", "test": "Potentiation of novobiocin-induced antibacterial activity against colistin-resistant Enterobacter cloacae 121187 clinical solate assessed as novobiocin MIC at <= 7.1 uM incubated for 18 hrs by CLSI protocol based assay (reference value: 64 ug/ml)", "format": "functional", "settings": "Enterobacter cloacae, 121187, 18 h"}, "Pseudomonas aeruginosa [19]": {"system": "Pseudomonas aeruginosa", "test": "Antibacterial activity against wild type Pseudomonas aeruginosa PAO1 incubated for 18 hrs by CLSI protocol based assay", "format": "functional", "settings": "PAO1, 18 h"}, "Pseudomonas aeruginosa [20]": {"system": "Pseudomonas aeruginosa", "test": "Antibacterial activity against carbapenem-resistant Pseudomonas aeruginosa 262-101856 clinical isolate incubated for 18 hrs by CLSI protocol based assay", "format": "functional", "settings": "262-101856, 18 h"}, "Pseudomonas aeruginosa [21]": {"system": "Pseudomonas aeruginosa", "test": "Antibacterial activity against carbapenem-resistant Pseudomonas aeruginosa 100036 clinical isolate incubated for 18 hrs by CLSI protocol based assay", "format": "functional", "settings": "Pseudomonas aeruginosa, 100036, 18 h"}, "Acinetobacter baumannii [22]": {"system": "Acinetobacter baumannii", "test": "Antibacterial activity against Acinetobacter baumannii 027 clinical incubated for 18 hrs by CLSI protocol based assay", "format": "functional", "settings": "Acinetobacter baumannii, 027, 18 h"}, "Escherichia coli": {"system": "Escherichia coli", "test": "Antibacterial activity against carbapenem-resistant Escherichia coli 107115 clinical isolate harboring mcr-1 gene incubated for 18 hrs by CLSI protocol based assay", "format": "functional", "settings": "Escherichia coli, 107115, 18 h"}, "Klebsiella pneumoniae [23]": {"system": "Klebsiella pneumoniae", "test": "Antibacterial activity against colistin-resistant Klebsiella pneumoniae 113250 clinical isolate incubated for 18 hrs by CLSI protocol based assay", "format": "functional", "settings": "Klebsiella pneumoniae, 113250, 18 h"}, "Pseudomonas aeruginosa [24]": {"system": "Pseudomonas aeruginosa", "test": "Potentiation of novobiocin-induced antibacterial activity against carbapenem-resistant Pseudomonas aeruginosa 259-96918 clinical isolate assessed as fold reduction in novobiocin MIC incubated for 18 hrs by CLSI protocol based assay relative to novobiocin MIC", "format": "functional"}, "Enterobacter cloacae [25]": {"system": "Enterobacter cloacae", "test": "Potentiation of novobiocin-induced antibacterial activity against colistin-resistant Enterobacter cloacae 118568 clinical solate assessed as fold reduction in novobiocin MIC incubated for 18 hrs by CLSI protocol based assay relative to novobiocin MIC", "format": "functional"}, "Pseudomonas aeruginosa [26]": {"system": "Pseudomonas aeruginosa", "test": "Potentiation of novobiocin-induced antibacterial activity against mexAB-oprM mutant deficient Pseudomonas aeruginosa PAO200 assessed as novobiocin MIC at <= 7.1 uM incubated for 18 hrs by CLSI protocol based assay (reference value: 32 ug/ml)", "format": "functional", "settings": "PAO200, 18 h"}, "Acinetobacter baumannii [27]": {"system": "Acinetobacter baumannii", "test": "Bactericidal activity against Acinetobacter baumannii ATCC 17978 assessed as log reduction in colony forming units per ml at 7.1 uM in LB media after 9 hrs by time-kill assay", "format": "functional"}, "Acinetobacter baumannii [28]": {"system": "Acinetobacter baumannii", "test": "Bactericidal activity against Acinetobacter baumannii ATCC 17978 assessed as log reduction in colony forming units per ml at 7.1 uM in LB media after 9 hrs in presence of 50.4 uM novobiocin by time-kill assay", "format": "functional"}, "[29]": {"test": "Toxicity in Galleria mellonella larvae MDR Acinetobacter baumannii isolate assessed as mortality at 100 mg/kg measured after 24 hrs relative to control", "format": "ADME, organism-based", "settings": "in vivo, read-out: Activity"}, "Acinetobacter baumannii [30]": {"system": "Acinetobacter baumannii", "test": "Antibacterial activity against wild type Acinetobacter baumannii ATCC 17978 by checkerboard assay", "format": "functional"}, "Acinetobacter baumannii [31]": {"system": "Acinetobacter baumannii", "test": "Potentiation of novobiocin-induced antibacterial activity against novobiocin and colistin resistant Acinetobacter baumannii ATCC 17978 mutant generated from seven serial passages by checkerboard assay", "format": "functional, organism-based"}}, "note": "Activity calls are given as the source filed them. No cut-off for these calls is given here."}
{"compound": "NC[C@H]1O[C@H](O[C@H]2[C@H](OCCCCc3cn(CCCCO[C@@H]4[C@@H](O[C@H]5O[C@H](CO)[C@@H](O)[C@H](N)[C@H]5O)[C@H](N)C[C@H](N)[C@H]4O[C@H]4O[C@H](CN)[C@@H](O)C[C@H]4N)nn3)[C@@H](O[C@H]3O[C@H](CO)[C@@H](O)[C@H](N)[C@H]3O)[C@H](N)C[C@@H]2N)[C@H](N)C[C@@H]1O.O=C(O)C(F)(F)F.O=C(O)C(F)(F)F.O=C(O)C(F)(F)F.O=C(O)C(F)(F)F.O=C(O)C(F)(F)F.O=C(O)C(F)(F)F.O=C(O)C(F)(F)F.O=C(O)C(F)(F)F.O=C(O)C(F)(F)F.O=C(O)C(F)(F)F", "values": [{"measurement": "Activity", "setting": "Pseudomonas aeruginosa [1]", "result": "Dose-dependent effect"}, {"measurement": "Activity", "setting": "HEK293", "result": "Non-Toxic"}, {"measurement": "Activity", "setting": "[2]", "result": "Non-Toxic"}, {"measurement": "Activity", "setting": "Pseudomonas aeruginosa [3]", "result": "Dose-dependent effect"}, {"measurement": "Activity", "setting": "Pseudomonas aeruginosa [4]", "result": "Dose-dependent effect"}, {"measurement": "Activity", "setting": "Pseudomonas aeruginosa [5]", "result": "inactive"}, {"measurement": "fold change (FC)", "setting": "Pseudomonas aeruginosa [6]", "result": "4 - 128"}, {"measurement": "fold change (FC)", "setting": "Pseudomonas aeruginosa [7]", "result": "4 - 128"}, {"measurement": "fold change (FC)", "setting": "Pseudomonas aeruginosa [8]", "result": "4 - 128"}, {"measurement": "MIC", "setting": "Pseudomonas aeruginosa [9]", "result": 4, "unit": "µg/mL"}, {"measurement": "MIC", "setting": "Pseudomonas aeruginosa [10]", "result": 8, "unit": "µg/mL"}, {"measurement": "MIC", "setting": "Pseudomonas aeruginosa [11]", "result": 8, "unit": "µg/mL"}, {"measurement": "MIC", "setting": "Pseudomonas aeruginosa [12]", "result": 1, "unit": "µg/mL"}, {"measurement": "MIC", "setting": "Pseudomonas aeruginosa [13]", "result": 8, "unit": "µg/mL"}, {"measurement": "MIC", "setting": "Acinetobacter baumannii [14]", "result": 0.5, "unit": "µg/mL"}, {"measurement": "MIC", "setting": "Acinetobacter baumannii [15]", "result": 0.5, "unit": "µg/mL"}, {"measurement": "MIC", "setting": "Acinetobacter baumannii [16]", "result": 0.5, "unit": "µg/mL"}, {"measurement": "MIC", "setting": "Klebsiella pneumoniae [17]", "result": 16, "unit": "µg/mL"}, {"measurement": "MIC", "setting": "Enterobacter cloacae [18]", "result": 8, "unit": "µg/mL"}, {"measurement": "MIC", "setting": "Pseudomonas aeruginosa [19]", "result": "> 128", "unit": "µg/mL"}, {"measurement": "MIC", "setting": "Pseudomonas aeruginosa [20]", "result": "> 128", "unit": "µg/mL"}, {"measurement": "MIC", "setting": "Pseudomonas aeruginosa [21]", "result": "> 128", "unit": "µg/mL"}, {"measurement": "MIC", "setting": "Acinetobacter baumannii [22]", "result": "> 128", "unit": "µg/mL"}, {"measurement": "MIC", "setting": "Escherichia coli", "result": "> 128", "unit": "µg/mL"}, {"measurement": "MIC", "setting": "Klebsiella pneumoniae [23]", "result": "> 128", "unit": "µg/mL"}, {"measurement": "Ratio", "setting": "Pseudomonas aeruginosa [24]", "result": 64}, {"measurement": "Ratio", "setting": "Enterobacter cloacae [25]", "result": 32}, {"measurement": "MIC", "setting": "Pseudomonas aeruginosa [26]", "result": 0.125, "unit": "µg/mL"}, {"measurement": "Activity", "setting": "Acinetobacter baumannii [27]", "result": -3, "unit": "CFU/ml"}, {"measurement": "Activity", "setting": "Acinetobacter baumannii [28]", "result": -5, "unit": "CFU/ml"}, {"measurement": "mortality at 24 h", "setting": "[29]", "result": 100, "unit": "%"}, {"measurement": "MIC", "setting": "Acinetobacter baumannii [30]", "result": 0.5, "unit": "µg/mL"}, {"measurement": "Activity", "setting": "Acinetobacter baumannii [31]", "result": "inactive"}]}
